Consider 11 compounds from ChEMBL document CHEMBL1201862, “PubChem BioAssay data set” (2004).

The structures appear in SMILES notation.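 Results reflect a 48-hour exposure of cells in 96-well plates to compound at five concentrations. GI50: concentration for 50% inhibition of growth.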 The source made the active and inactive calls. Rule as the data show it: active = GI50 up to about 1.1 µM and inactive = higher.

Among the test systems are A498; ACHN; CAKI-1; DU-145; HCT-15; Hs-578T; M14; MCF7; MDA-MB-435; NCI-H226; NCI-H23; NCI-H522; NCI/ADR-RES; OVCAR-5; OVCAR-8; SK-MEL-5; SK-OV-3; TK-10; U-251; MOLT-4.
Assay in all cases: NCI-60 cell line screen, 48 h

Turning to `CC(C)C(=O)C(C)(C)CCc1ccccn1`, the GI50 with A498 was > 100 µM (inactive); in the test on ACHN it was > 100 µM (inactive); in the test on CAKI-1 it was > 100 µM (inactive); in the test on DU-145 it was > 100 µM (inactive); in the test on HCT-15 it was more than 100 µM; in the test with Hs-578T it was > 100 µM (inactive). Moreover, the GI50 with M14, with MCF7, with MDA-MB-435, with NCI-H226, with NCI-H23 and with NCI-H522 was > 100 µM (inactive) in each case. Besides, the GI50 in the test with NCI/ADR-RES, with OVCAR-5, in the test on OVCAR-8, with SK-MEL-5, in the test with SK-OV-3 and with TK-10 was > 100 µM (inactive) each time. Further, the GI50 in the test with U-251 is > 100 µM (inactive).

Turning to `COC(=O)c1ccc(/C=C2\Oc3ccccc3C2=O)cc1`, the GI50 is > 100 µM (inactive) in the test with ACHN; 41.2 µM (inactive) in the test with CAKI-1; > 100 µM (inactive) in the test with DU-145; more than 100 µM in the test on HCT-15; > 100 µM (inactive) with Hs-578T; > 100 µM (inactive) in the test on M14. In addition, the GI50 in the test on MCF7 is > 100 µM (inactive); in the test with MDA-MB-435, > 100 µM (inactive); in the test on MOLT-4, > 100 µM (inactive); in the test with NCI-H226, > 100 µM (inactive); in the test on NCI-H23 it was > 100 µM (inactive); in the test with NCI-H522, 32.1 µM (inactive). Further, the GI50 with NCI/ADR-RES, with OVCAR-8, with SK-MEL-5, in the test on SK-OV-3, in the test with TK-10 and in the test on U-251 was > 100 µM (inactive) in each case.

As to `O=C(OCc1ccccc1CN1CCOCC1)c1cccc(Br)c1`, the GI50 was > 100 µM (inactive) in the test with A498; 63.1 µM (inactive) in the test on ACHN; 40.2 µM (inactive) with CAKI-1; 71 µM (inactive) in the test on DU-145; 36.4 µM in the test with HCT-15; 29.9 µM (inactive) with Hs-578T. Further, the GI50 with M14 is 36.9 µM (inactive); in the test on MCF7, 37 µM (inactive); in the test on MDA-MB-435, > 100 µM (inactive); in the test on MOLT-4, < 0.01 µM (active); with NCI-H226, 44.8 µM (inactive); in the test with NCI-H23, 27.9 µM (inactive). Moreover, the GI50 was 20.9 µM (inactive) in the test on NCI-H522; 26.7 µM (inactive) in the test on NCI/ADR-RES; 36.3 µM (inactive) with OVCAR-5; 44.5 µM (inactive) in the test on OVCAR-8; 17.7 µM (inactive) in the test with SK-MEL-5; > 100 µM (inactive) in the test on SK-OV-3. For the same compound, the GI50 with U-251 is 47.6 µM (inactive).

For `COc1ccc(C(C)NNC(=O)c2ccncc2)cc1OC` (centres undefined), the GI50 is > 100 µM (inactive) in the test with A498; > 100 µM (inactive) in the test on ACHN; > 100 µM (inactive) in the test with CAKI-1; > 100 µM (inactive) in the test with DU-145; more than 100 µM in the test with HCT-15; > 100 µM (inactive) in the test with Hs-578T. Besides, the GI50 in the test on M14, in the test with MCF7, with MDA-MB-435, in the test on MOLT-4, with NCI-H226 and in the test on NCI-H23 was > 100 µM (inactive) in each case. Besides, the GI50 is > 100 µM (inactive) in the test with NCI/ADR-RES; > 100 µM (inactive) with OVCAR-5; > 100 µM (inactive) with OVCAR-8; > 100 µM (inactive) in the test on SK-MEL-5; 26.4 µM (inactive) with SK-OV-3; > 100 µM (inactive) with TK-10. In the test with U-251, the GI50 was > 100 µM (inactive).

Turning to `Nc1ccccc1N/C(=C\C(=O)C(Cl)(Cl)Cl)c1ccccc1`, the GI50 in the test with ACHN is 24.1 µM (inactive); in the test with CAKI-1 it was 34.5 µM (inactive); in the test with DU-145 it was 38.8 µM (inactive); in the test with HCT-15, 25.4 µM; in the test on Hs-578T, 29.6 µM (inactive); with M14, 20.1 µM (inactive). The GI50 in the test with MCF7 is 23.7 µM (inactive); in the test with MDA-MB-435, 30.9 µM (inactive); in the test with MOLT-4 it was 23.3 µM (inactive); in the test with NCI-H226, 24.2 µM (inactive); with NCI-H23 it was 30.3 µM (inactive); in the test with NCI-H522, 15.3 µM (inactive). Besides, the GI50 with NCI/ADR-RES was 29.2 µM (inactive); in the test with OVCAR-5, 15.7 µM (inactive); with OVCAR-8, 30.5 µM (inactive); with SK-MEL-5, 15 µM (inactive); with SK-OV-3, 88.5 µM (inactive); in the test with TK-10, 65 µM (inactive). Further, the GI50 in the test with U-251 was 16.8 µM (inactive).

In the case of `CCCN1CC=C(c2cc(C(=O)OCC)[nH]c2-c2cc(C)no2)C1=O`, the GI50 was > 100 µM (inactive) in the test on A498; > 100 µM (inactive) in the test with CAKI-1; > 100 µM (inactive) with DU-145; more than 100 µM with HCT-15; > 100 µM (inactive) with Hs-578T; > 100 µM (inactive) with M14. For the same compound, the GI50 is > 100 µM (inactive) in the test on MCF7; > 100 µM (inactive) in the test with MDA-MB-435; 53.6 µM (inactive) with MOLT-4; 73.5 µM (inactive) in the test with NCI-H226; > 100 µM (inactive) in the test on NCI-H23; > 100 µM (inactive) with NCI/ADR-RES. Besides, the GI50 with OVCAR-5, with OVCAR-8, with SK-MEL-5, with SK-OV-3 and with U-251 was > 100 µM (inactive) throughout.

For `CCOC(=O)C1CCC/C1=N\NC(=N)N.Cc1cc(O)c(C(C)C)cc1S(=O)(=O)O` (centres undefined), the GI50 is > 100 µM (inactive) in the test on A498; > 100 µM (inactive) with ACHN; > 100 µM (inactive) with DU-145; more than 100 µM with HCT-15; > 100 µM (inactive) in the test on Hs-578T; > 100 µM (inactive) in the test on M14. Also, the GI50 in the test on MCF7, in the test on MDA-MB-435, with MOLT-4, with NCI-H226, in the test on NCI-H23 and in the test with NCI-H522 was > 100 µM (inactive) in each case. In addition, the GI50 in the test with NCI/ADR-RES, with OVCAR-5, with OVCAR-8, with SK-MEL-5, with SK-OV-3 and with TK-10 was > 100 µM (inactive) each time. In addition, the GI50 in the test with U-251 was > 100 µM (inactive).

As to `N=c1oc2ccc3ccccc3c2cc1-c1nc(O)c2ccccc2n1`, the GI50 in the test on ACHN was 11.1 µM (inactive); in the test on CAKI-1, 43.5 µM (inactive); with DU-145, 36.4 µM (inactive); in the test with HCT-15 it was 19.9 µM; in the test with Hs-578T, 20.5 µM (inactive); in the test on M14, 25.9 µM (inactive). In addition, the GI50 in the test with MCF7 was 14.4 µM (inactive); in the test with MDA-MB-435 it was 58.3 µM (inactive); with MOLT-4, 15.8 µM (inactive); in the test on NCI-H226, 37.1 µM (inactive); in the test on NCI-H522 it was 3.27 µM (inactive); in the test with NCI/ADR-RES, 14.2 µM (inactive). Besides, the GI50 in the test with OVCAR-5 was 96.6 µM (inactive); in the test with OVCAR-8 it was 26.7 µM (inactive); with SK-MEL-5, 44.5 µM (inactive); in the test with SK-OV-3, 19.9 µM (inactive); in the test on TK-10, 21 µM (inactive); in the test with U-251, 19.2 µM (inactive).

For the compound `O=C(O)CC(C(=O)O)c1ccccc1[N+](=O)[O-]` (centres undefined), the GI50 with A498 is > 100 µM (inactive); in the test with ACHN it was > 100 µM (inactive); in the test on CAKI-1, > 100 µM (inactive); with DU-145, > 100 µM (inactive); with HCT-15 it was more than 100 µM; in the test on Hs-578T it was 25.6 µM (inactive). The GI50 in the test with M14, with MCF7, in the test on MDA-MB-435, in the test with NCI-H226, with NCI-H23 and with NCI-H522 was > 100 µM (inactive) in each case. The GI50 in the test with NCI/ADR-RES, with OVCAR-5, with OVCAR-8, in the test on SK-MEL-5, in the test on SK-OV-3 and in the test on TK-10 was > 100 µM (inactive) in each case. Also, the GI50 in the test with U-251 is > 100 µM (inactive).

For the compound `c1ccc2nc(CCC3CCCCN3)ccc2c1` (centres undefined), the GI50 in the test on A498 was 77.6 µM (inactive); in the test on ACHN, > 100 µM (inactive); in the test on CAKI-1, > 100 µM (inactive); in the test with DU-145, > 100 µM (inactive); in the test with HCT-15, more than 100 µM; in the test on Hs-578T, > 100 µM (inactive). The GI50 is > 100 µM (inactive) with M14; > 100 µM (inactive) in the test with MCF7; 97.7 µM (inactive) in the test on MDA-MB-435; > 100 µM (inactive) in the test on NCI-H226; 72.9 µM (inactive) in the test on NCI-H23; 40.6 µM (inactive) in the test on NCI-H522. Also, the GI50 is 49.5 µM (inactive) with NCI/ADR-RES; > 100 µM (inactive) in the test on OVCAR-5; > 100 µM (inactive) in the test on OVCAR-8; 38.2 µM (inactive) in the test with SK-MEL-5; > 100 µM (inactive) with SK-OV-3; > 100 µM (inactive) in the test on TK-10. Besides, the GI50 in the test on U-251 is > 100 µM (inactive).

Consider `C[C@@H]1CC[C@]2(C(=O)O)CC[C@]3(C)C(=CC[C@@H]4[C@@]5(C)CC[C@H](O)C(C)(C)[C@@H]5CC[C@]43C)[C@@H]2[C@]1(C)O` [POMOLIC ACID], for which the GI50 with A498 is 19 µM (inactive); in the test with ACHN it was 16.5 µM (inactive); in the test on CAKI-1 it was 14 µM (inactive); in the test with DU-145, 8.97 µM (inactive); in the test with HCT-15, 10.6 µM; with Hs-578T, 3.52 µM (inactive). The GI50 in the test on M14 was 2.98 µM (inactive); in the test on MCF7 it was 20 µM (inactive); in the test on MDA-MB-435, 15.5 µM (inactive); with MOLT-4 it was 4.86 µM (inactive); in the test on NCI-H23, 18.7 µM (inactive); in the test with NCI-H522, 13.9 µM (inactive). The GI50 with NCI/ADR-RES was 15.5 µM (inactive); in the test on OVCAR-5, 17.7 µM (inactive); in the test on OVCAR-8, 20.2 µM (inactive); with SK-OV-3 it was 17.9 µM (inactive); with TK-10 it was 14.5 µM (inactive); in the test on U-251, 14.1 µM (inactive).
